Source: US20070128217A1 (priority 2003, published 2007)

Experiments:
[1] = tested on: antibodies in sera from SARS patients (sera 1a, 1b, 2, 6, 37, 62, London, SARS-yellow, SARS-green); type: binding, human; set-up: Binding of serum 6 to linear peptides of protein X1 of SARS-CoV Urbani / Binding of serum 37 to linear peptides of protein X1 of SARS-CoV Urbani / Binding of serum 6 to looped/cyclic peptide (PEPSCAN-ELISA) / Binding of serum 37 to looped/cyclic peptide (PEPSCAN-ELISA) / Binding of serum 37 to looped/cyclic peptides of protein X1 of SARS-CoV Urbani / Binding of serum 6 to linear peptides of protein X2 / Binding of serum 37 to linear peptides of protein X2 / Binding of serum 37 to looped/cyclic peptides of protein X2 of SARS-CoV Urbani / Binding of serum 6 to linear peptides of protein M of SARS-CoV Urbani / Binding of serum 37 to linear peptides of protein M of SARS-CoV Urbani / Binding of serum 6 to looped/cyclic peptides of protein M of SARS-CoV Urbani / Binding of serum 37 to looped/cyclic peptides of protein M of SARS-CoV Urbani / Binding of serum 6 to linear peptides of protein X3 of SARS-CoV Urbani / Binding of serum 37 to linear peptides of protein X3 of SARS-CoV Urbani / Binding of serum 37 to looped/cyclic peptides of protein X3 of SARS-CoV Urbani / Binding of serum 6 to linear peptides of protein X4 of SARS-CoV Urbani / Binding of serum 37 to linear peptides of protein X4 of SARS-CoV Urbani / Binding of serum 37 to looped/cyclic peptides of protein X4 of SARS-CoV Urbani / Binding of serum 6 to linear peptides of protein X5 of SARS-CoV Urbani / Binding of serum 37 to linear peptides of protein X5 of SARS-CoV Urbani / Binding of serum 37 to looped/cyclic peptides of protein X5 of SARS-CoV Urbani / Binding of serum 6 to linear peptides of protein N of SARS-CoV Urbani / Binding of serum 37 to linear peptides of protein N of SARS-CoV Urbani / Binding of serum 6 to linear peptide (PEPSCAN-ELISA) / Binding of serum 1a to looped/cyclic peptides of protein N of SARS-CoV Urbani / Binding of serum 1b to looped/cyclic peptides of protein N of SARS-CoV Urbani / Binding of serum 2 to looped/cyclic peptides of protein N of SARS-CoV Urbani / Binding of serum 6 to looped/cyclic peptides of protein N of SARS-CoV Urbani / Binding of serum 37 to looped/cyclic peptides of protein N of SARS-CoV Urbani / Binding of serum 62 to looped/cyclic peptides of protein N of SARS-CoV Urbani / Binding of serum London to looped/cyclic peptides of protein N of SARS-CoV Urbani / Binding of serum SARS-green to looped/cyclic peptides of protein N of SARS-CoV Urbani: unit not given here
[2] = tested on: rabbit serum obtained by immunizing a rabbit with the SARS-CoV strain Frankfurt 1; type: binding; set-up: Binding of a rabbit serum to linear peptides / Binding of a rabbit serum to looped peptides / Rabbit serum linear peptides / Rabbit serum looped peptides / Binding of a rabbit serum to linear peptides of protein N of SARS-CoV Urbani (Rabbit serum linear peptides) / Binding of a rabbit serum to looped/cyclic peptides of protein N of SARS-CoV Urbani (Rabbit serum looped peptides): unit not given here
[3] = tested on: control sera (pooled serum of ten healthy LUMC hospital workers; commercial negative donor pooled serum from the Dutch bloodbank); type: binding, human; set-up: Binding of Control serum LUMC to linear peptides / Binding of Control serum Blood-bank to linear peptides / Binding of Control serum LUMC to looped peptides / Binding of Control Serum Blood-Bank to Looped peptides / Binding of Control serum LUMC to linear peptides of the protein M of SARS-CoV Urbani / Binding of Control serum Blood-bank to linear peptides of the protein M of SARS-CoV Urbani / Binding of Control serum LUMC to looped peptides of the protein M of SARS-CoV Urbani / Binding of Control Serum Blood-Bank to Looped peptides of the protein M of SARS-CoV Urbani: unit not given here
[4] = tested on: recombinant human anti-SARS-CoV antibody 03-018; type: binding; set-up: Binding of antibody 03-018 to linear peptides of the N protein of SARS-CoV Urbani / Binding of antibody 03-018 to looped/cyclic peptides of the N protein of SARS-CoV Urbani: unit not given here

Sequence | Binding of serum 1a to looped/cyclic peptides of protein N of SARS-CoV Urbani [1] | Binding of serum 1b to looped/cyclic peptides of protein N of SARS-CoV Urbani [1] | Binding of serum 2 to looped/cyclic peptides of protein N of SARS-CoV Urbani [1] | Binding of serum 6 to looped/cyclic peptides of protein N of SARS-CoV Urbani [1] | Binding of serum 37 to looped/cyclic peptides of protein N of SARS-CoV Urbani [1] | Binding of serum 62 to looped/cyclic peptides of protein N of SARS-CoV Urbani [1] | Binding of serum London to looped/cyclic peptides of protein N of SARS-CoV Urbani [1] | Binding of serum SARS-green to looped/cyclic peptides of protein N of SARS-CoV Urbani [1] | Binding of serum SARS-yellow to looped/cyclic peptides of protein N of SARS-CoV Urbani [1] | Binding of a rabbit serum to linear peptides of protein N of SARS-CoV Urbani (Rabbit serum linear peptides) [2] | Binding of a rabbit serum to looped/cyclic peptides of protein N of SARS-CoV Urbani (Rabbit serum looped peptides) [2] | Binding of antibody 03-018 to linear peptides of the N protein of SARS-CoV Urbani [4] | Binding of antibody 03-018 to looped/cyclic peptides of the N protein of SARS-CoV Urbani [4] | Binding of Control Serum Blood-Bank to Looped peptides [3] | Binding of Control serum Blood-bank to linear peptides [3] | Binding of Control serum LUMC to linear peptides [3] | Binding of Control serum LUMC to looped peptides [3] | other results
LLPAADMDDFSRQLQ | 0.3 | 0.1 | 0.4 | 0.1 | 0.5 | 0.2 | 0.3 | 0.2 | 0.3 | 0.1 | 0.2 | 0.1 | 0.2 | – | – | – | – | Binding of serum 1a to linear peptides of protein N of SARS-CoV Urbani [1]: 0.3; Binding of serum 1b to linear peptides of protein N of SARS-CoV Urbani [1]: 0.2; Binding of serum 2 to linear peptides of protein N of SARS-CoV Urbani [1]: 0.3; Binding of serum 6 to linear peptides of protein N of SARS-CoV Urbani [1]: 0.3; Binding of serum 37 to linear peptides of protein N of SARS-CoV Urbani [1]: 0.8; Binding of serum 62 to linear peptides of protein N of SARS-CoV Urbani [1]: 0.6; Binding of serum London to linear peptides of protein N of SARS-CoV Urbani [1]: 0.6; Binding of serum SARS-green to linear peptides of protein N of SARS-CoV Urbani [1]: 0.4; Binding of serum SARS-yellow to linear peptides of protein N of SARS-CoV Urbani [1]: 0.6; Control Serum Blood-Bank Looped peptides [3]: 0.4; Control serum Blood-bank linear peptides [3]: 0.7; Control serum LUMC linear peptides [3]: 0.6; Control serum LUMC looped peptides [3]: 0.4
FGRRGPEQTQGNFGD | 0.3 | 0.1 | 0.2 | 0.1 | 0.4 | 0.1 | 0.2 | 0.2 | 0.2 | 0.2 | 0.0 | 0.1 | 0.1 | 0.4 | 0.7 | 0.6 | 0.3 | Recognition of the peptide by sera of SARS-CoV infected individuals, and form (linear, looped/cyclic) in which it is recognized [1]: recognized in linear form
ALALLLLDRLNQLES | 0.4 | 0.2 | 0.4 | 0.2 | 0.8 | 0.7 | 0.5 | 0.4 | 0.5 | 0.2 | 0.6 | 0.1 | 0.3 | 0.8 | 0.7 | 0.7 | 0.8 | Binding of serum 1a to linear peptide (PEPSCAN-ELISA) [1]: 0.3; Binding of serum 1b to linear peptide (PEPSCAN-ELISA) [1]: 0.2; Binding of serum 2 to linear peptide (PEPSCAN-ELISA) [1]: 0.1; Binding of serum 6 to linear peptide (PEPSCAN-ELISA) [1]: 0.2; Binding of serum 37 to linear peptide (PEPSCAN-ELISA) [1]: 0.5; Binding of serum 62 to linear peptide (PEPSCAN-ELISA) [1]: 0.6; Binding of serum London to linear peptide (PEPSCAN-ELISA) [1]: 0.5; Binding of serum SARS-green to linear peptide (PEPSCAN-ELISA) [1]: 0.4; Binding of serum SARS-yellow to linear peptide (PEPSCAN-ELISA) [1]: 0.5
